One data set addresses T1, aromatase (Homo sapiens, UniProt P11511).
T1 construct: endogenous in cells; host or cells: KGN human ovarian granulosa-like tumor cell line (RIKEN RCB 1154)
T1 sequence (P11511 1-503): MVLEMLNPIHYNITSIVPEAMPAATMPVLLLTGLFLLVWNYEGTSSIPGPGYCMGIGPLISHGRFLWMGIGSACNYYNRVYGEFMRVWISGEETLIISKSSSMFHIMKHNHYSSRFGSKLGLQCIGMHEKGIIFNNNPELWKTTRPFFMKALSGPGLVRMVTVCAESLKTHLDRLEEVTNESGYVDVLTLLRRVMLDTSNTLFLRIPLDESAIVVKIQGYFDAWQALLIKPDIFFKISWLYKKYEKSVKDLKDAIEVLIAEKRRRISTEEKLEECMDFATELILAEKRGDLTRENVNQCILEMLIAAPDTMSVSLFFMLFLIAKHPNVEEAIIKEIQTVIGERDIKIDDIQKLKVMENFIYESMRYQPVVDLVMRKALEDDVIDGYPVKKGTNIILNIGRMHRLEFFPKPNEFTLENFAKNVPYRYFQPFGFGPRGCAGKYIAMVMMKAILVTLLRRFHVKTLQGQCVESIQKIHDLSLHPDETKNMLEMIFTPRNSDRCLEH
In words: Aromatase activity in KGN cells by [3H]H2O release assay. The class given is cell-based. As to conditions: for effect on aromatase activity in KGN cells: method of Example 3, FIGS. 5A–5B. How it is done:
Assaying for inhibition or activation of aromatase activity may be carried out by measuring the amount of [^3H]H2O released upon conversion of [1β-^3H]androstenedione to estrone using a modification of the method of Ackerman et al, J. Clin. Endocrinol. Metab., 53:412–417 (1981), or as described in Example 3 below. Briefly, the cells are plated on a petri dish (Falcon 3001) in culture medium with 10% (v/v) fetal calf serum (FCS). At is confluence, the culture medium is replaced with DMEM/Ham's F-12 containing 5.0–10% (v/v) dextran-coated, charcoal-treated FCS (DCS) (Hyclone, Logan Utah), and incubated for another 12 h in the presence or absence of 10^−5–10^−2 M db-cAMP (Wako Pure Chemical Industries Ltd.) and the test compound. After treatment, the cells are further incubated with 12.5 nM [1β-^3H]androstenedione (NEN Life Science Products, Boston, Mass.; SA, 27.5 Ci/mmol) for 6–12 h. After incubation, the medium (2.0 ml) is transferred to tubes containing 1.0 ml ice-cold 30% (w/v) trichloroacetic acid (TCA), and then centrifuged to remove precipitated protein. The cells are harvested using 0.25% (w/v) trypsin-1.0 mM EDTA to determine the protein concentration. The protocol for the extraction of the medium to measure the amount of [^3H]H2O is performed as described by Tanaka et al, Calcif. Tissue Int., 52:107–109 (1993). Finally, the amount of radioactivity in the [^3H]H2O is corrected by subtracting the blank values from each sample. The cell protein content is determined using a micro bicinichoninic acid kit (Pierce Chemical Co., Rockford, Ill.) after the cells are dissolved in 1.0 N NaOH. The aromatase activity is expressed as picomoles per mg cell protein. As a control, the aromatase activities of human granulosa cells (obtained from in vitro fertilization programs), human fibroblast, and HOS cell (human osteoblast-like cell line) (Tanaka et al, supra) can be measured in the same manner.
More specifically, aromatase activity was determined by measuring [^3H] H2O release upon conversion of [1β-^3H]androstenedione (A) to estrone (E1), as described by Mu et al, Biochem. Biophys. Res. Commun., 271(3):710–713 (2000). [1β-^3H]androstenedione was purchased from Amersham Pharmacia Biotech (Boston, Mass.).
The medium (2.0 ml) was extracted with chloroform, and was then centrifuged. The aqueous supernatant was mixed with 5.0% (w/v) charcoal/0.5% (w/v) dextran, and incubated for 30 min. Thereafter, the mixture was centrifuged and the supernatant was added to 5.0 ml of scintillation fluid and assayed for radioactivity. The amount of radioactivity in [^3H]H2O thus measured was standardized based on the protein concentration, which was determined using a micro BCA kit (Pierece Chemical Co., Rockford, Ill.), and expressed as pmol/mg protein/6 h.

The next data set relates to marine neogastropods. As to conditions: cited from earlier work.
Data set [1] deals with KGN cells. In words: Effect on KGN cell growth (cell counting, trypan blue exclusion). The class given is cell-based, human. The conditions noted are these: for toxicity to KGN cells: more than 1000 ng/ml, within 24 h. As for the experimental part:
Further, both compounds were dissolved in ethanol, and the final concentration of ethanol in the cell growth medium was 0.1% (w/v).
More specifically, the cells were plated onto a 24-well plate at 1×10^4 cells/well in DMEM/F-12 supplemented with 10% (v/v) FCS. […] Cell viability was assessed by the trypan blue exclusion method.

For another data set, the system named is Thais clavigera. As to conditions: rock shell; cited from earlier work.
The test system of the next data set is Ad4BP. Put plainly: Expression level of Ad4BP in KGN cells by RT-PCR. It counts as cell-based, human.
The next data set concerns P450arom promoter II. In words: Luciferase reporter assay of P450arom promoter II in transfected KGN cells. As to conditions: for luciferase activity of P450arom promoter II: 20 ng/ml, 48 h, basic state or stimulated by db-cAMP; for Ad4BP/SF-1-dependent increase of the luciferase activity: co-transfected with Ad4BP expression vector. The class given is cell-based, human. How it is done:
Thus, to determine whether or not the decreased expression of P450arom mRNA was regulated through promoter II, which is the major promoter in ovarian granulosa cells (Nishi et al, Endocrinol., 142:437–445 (2001); Means et al, Mol. Endocrinol., 5:2005–2013 (1991); and Carlone et al, Mol. Endocrinol., 11:292–304 (1997)), luciferase activity was determined using a 1 kb P450arom promoter II expression construct in the luciferase reporter vector, pGL3 (Mu et al, Mol. Cell. Endocrinol., 181:239–248 (2001)). pGL3 was obtained from Promega (Madison, Wis.). Transfection was performed using SuperFect reagents according to the manufacturer's instructions (Qiagen (Hilden, Germany)). More specifically, 1×10^5 cells were seeded in a 6-well plate 12 h prior to transfection, and transfected with 2.0 μg of DNA. Five nanograms of Renilla luciferase control reporter vector, pRL-CMV, obtained from Promega (Madison, Wis.), as an internal standard, were added per well to assess the transfection efficiency. […] The promoter activity determined is shown as a fold-increase in the luciferase activity normalized for Renilla luciferase activity (termed relative luciferase activity).

Data set [2] deals with E2 production in KGN cells. Put plainly: Estradiol (E2) production in cultured KGN cells (RIA). It counts as cell-based, human. The conditions noted are these: 20 ng/ml, 7 days. As for the experimental part:
The media was collected and the E2 content in the media was determined by specific RIA (SRL, Inc. Tokyo, Japan).

In data set [3] the test system is KGN cells. As to conditions: 200 ng/ml.
Protocol: More specifically, early and late apoptotic changes in the cells were determined using an Annexin V-EGFP/PI Apoptosis Detection Kit, as described by Mu et al, Endocrinol., 142:3590–3597 (2001). […] After the treatment, the cells were washed once with phosphate-buffered saline (PBS), and then incubated with 200 ml of 1× binding buffer comprising 1.0 ml annexin V-EGFP and 1.0 ml propidium iodide (PI) at room temperature for 5 min in the dark. The cells were then scanned using a confocal laser scanning microscopy (Leica TCS-SP system, Leica Microsystems, Heidelberg, Germany) using a dual filter set for FITC & TRITC. The cell membrane was imaged for green fluorescence (stained by annexin V-EGFP) by excitation with the 488 nm line from an argon laser, and the emission was viewed through a 460 to 505 nm band pass filter. The cell nucleus was imaged for red fluorescence (stained by PI) by excitation with the 560 nm line from an argon laser, and the emission was viewed through a 520 to 580 nm band pass filter.
The subject of the next data set is P450arom mRNA. The conditions noted are these: 20 ng/ml, 48 h. How it is done:
RNA extraction and RT-PCR analysis for P450arom mRNA were performed as described by Ikuyama et al, Clin. Endrocrinol., 48(5):647–654 (1998). Taq DNA polymerase was obtained from Promega (Madison, Wis.) All of the primers for the PCR were synthesized by Amersham Pharmacia Biotech (Osaka, Japan). The PCR products were electrophoresed on 2.0% (w/v) agarose gel containing […] ethidium bromide.
The relative expression levels of P450arom vis-à-vis β-actin were determined by the measuring of the intensity of the ethidium bromide.

Setting [4] is: same culture system (KGN cells).

With `N#Cc1ccc(N(Cc2ccc(Br)cc2)n2cnnc2)cc1` [YM511], at aromatase (setting [4]), the “extent of suppression of aromatase activity” value was “complete suppression” and the “time for suppression of aromatase activity” value is reported as at most 5 min.

With `CC1=CC(=O)C=C2CC[C@@H]3[C@H](CC[C@]4(C)C(=O)CC[C@@H]34)[C@@]12C` [SH489], in the data set with marine neogastropods (compared with TBT-exposure), the imposex induction entry is reported as “same imposex-inducing effect”.

On to `ClC1=C(Cl)C2(Cl)C3C(Cl)C=CC3C1(Cl)C2(Cl)Cl` (stereo not shown) [Heptachlor], for which the “effect on aromatase activity in KGN cells” value (from here on “effect on aromatase activity”) on aromatase is “activate aromatase activity”.

As to `c1ccc2c(c1)c1cccc3ccc4cccc2c4c31` [Benzopyrene], the “effect on aromatase activity” value at aromatase is “activate aromatase activity”.

As to triphenyltin [TPT], in the data set on KGN cells [1] (less than 50 ng/ml (2 or 20 ng/ml), 7 days), the “effect on KGN cell proliferation” value is given as “little effect”. Further, the “toxicity to KGN cells” value in the data set on KGN cells [1] is recorded as “all of the cells died”. Besides, in the data set on Thais clavigera, the “effect on the development of imposex” value is “strong effect”. For the same compound, the “expression level of Ad4BP” value in the data set on Ad4BP was “unchanged”. Moreover, the “aromatase activity, % of the baseline” value on aromatase (20 ng/ml, 72 h, basal (no db-cAMP)) was “about 30%”. In addition, the “effect on db-cAMP-induced increase in aromatase activity” value at aromatase (20 ng/ml, with 10^−4 M db-cAMP) is “suppressed”. In addition, in the data set on P450arom promoter II, the “luciferase activity of P450arom promoter II” value is on record as “decreased” and the “Ad4BP/SF-1-dependent increase of the luciferase activity” value is “significantly suppressed”. The “E2 concentration in the medium” value in data set [2] is listed as “significant decrease”.

As for `CC(=O)O[C@]1(C(C)=O)CC[C@H]2[C@@H]3C=C(Cl)C4=CC(=O)[C@@H]5C[C@@H]5[C@]4(C)[C@H]3CC[C@@]21C` [cyproterone acetate], the “effect on TBT-induced imposex” value in the data set with marine neogastropods (in vivo) is “completely suppressed”.

Regarding `CCCC(=O)Nc1ncnc2c1ncn2[C@@H]1O[C@@H]2COP(=O)(O)O[C@H]2[C@H]1OC(=O)CCC` [db-cAMP, dibutyryl cyclic AMP], the “increase in aromatase activity over baseline” value at aromatase (10^−4 M db-cAMP) came to 1.7 fold. The “activation of the P450arom promoter II” value with P450arom promoter II (10^−4 M db-cAMP) came out at 1.7 fold.

For `CCCCNC(=O)n1c(NC(=O)OC)nc2ccccc21` [Benomyl], the “effect on aromatase activity” value at aromatase was “activate aromatase activity”.

For the compound tributyltin [TBT], the “toxicity to KGN cells” value in the data set on KGN cells [1] is listed as “all of the cells died”. In addition, in the data set on Ad4BP, the “expression level of Ad4BP” value is recorded as “unchanged”. Further, in the data set with P450arom promoter II, the “luciferase activity of P450arom promoter II” value was “decreased” and the “Ad4BP/SF-1-dependent increase of the luciferase activity” value is “significantly suppressed”. Further, in the data set with KGN cells [3] (48 h), the “apoptotic changes (annexin V positive/PI negative)” value is “early apoptotic cells”. In addition, the “apoptotic changes (annexin V positive/PI positive)” value in the data set on KGN cells [3] (72 h) is recorded as “late apoptotic cells”. Besides, the “P450arom mRNA levels” value in the data set with P450arom mRNA is recorded as “decrease”.

These data come from patent US7018806B2, “Method for identifying endocrine disruptors and kit for carrying out the same” (priority 2001, dated 2006).
